Results as given in ChEMBL document CHEMBL1134131, “Discovery of 2,3-diaryl-1,3-thiazolidin-4-ones as potent anti-HIV-1 agents” (Bioorg Med Chem Lett, 2001).

Legend:
MT4 [1] = assay: Anti-HIV activity to reduce […] cytopathic effect by 50% in MT-4 cells against HIV-1 IIIB; format: functional, cell-based; conditions: Homo sapiens
MT4 [2] = assay: Cytotoxicity to reduce MT-4 cell viability by 50%; format: functional; conditions: Homo sapiens
MT4 [3] = assay: Anti-HIV activity to reduce HIV-2-induced cytopathic effect by 50% in MT-4 cells against HIV-2 ROD; format: functional, cell-based; conditions: Homo sapiens
MT4 [4] = assay: Evaluated for the inhibition of replication of HIV-1 IIIB or HIV-2 (ROD) in MT-4 cells by using [3H]-dGTP as the radiolabeled substrate; format: functional, cell-based; conditions: Homo sapiens
MT4 [5] = assay: Compound was evaluated for the inhibition of replication of HIV-1 IIIB or HIV-2 (ROD) in MT-4 cells by using [3H]dGTP radiolabeled substrate; format: functional, cell-based; conditions: Homo sapiens
MT4 [6] = assay: Evaluated for the inhibition of replication of HIV-1 IIIB or HIV-2 (ROD) in MT-4 cells by using [3H]dGTP radiolabeled substrate; format: functional, cell-based; conditions: Homo sapiens
MT4 [7] = assay: Anti-HIV activity to reduce […] cytopathic effect by 50% in MT-4 cells against HIV-1 IIIB; NA= not active; format: functional, cell-based, Homo sapiens
MT4 [8] = assay: Anti-HIV activity to reduce […] cytopathic effect by 50% in MT-4 cells against HIV-1 IIIB; NA=not active; format: functional, cell-based, Homo sapiens
MT4 [9] = assay: Concentration required to reduce HIV-1-induced cytopathic effect by 50% in MT-4 cells against HIV-2 ROD; format: functional, cell-based; conditions: Homo sapiens
MT4 [10] = assay: Evaluated for cytotoxicity and the concentration required to reduce MT-4 cell viability by 50% was reported; format: functional; conditions: Homo sapiens
MT4 [11] = assay: Concentration required to reduce HIV-1-induced cytopathic effect by 50% in MT-4 cells against HIV-1 IIIB; format: functional, cell-based; conditions: Homo sapiens
[12] = Selectivity index ([…] ratio)of the compound; format: functional

Row | Compound | EC50 (MT4 [1]) [µM] | CC50 (MT4 [2]) [µM] | EC50 (MT4 [3]) [µM] | also measured
1 | Cc1cccnc1N1C(=O)CSC1c1c(F)cccc1F (stereo not drawn) | 53.5 | > 319 | > 270 | –
2 | Fc1cccc(F)c1C1SCc2nc3ccccc3n21 (stereo not drawn) [THIAZOLOBENZIMIDAZOLE] | 0.352 | 19.2 | – | IC50 (MT4 [4]): 14.6 µM
3 | Cc1cccc(N2C(=O)CSC2c2c(F)cccc2F)n1 (stereo not drawn) | 0.082 | 126 | > 126 | IC50 (MT4 [5]): 2.9 µM
4 | O=C1CSC(c2c(Cl)cccc2Cl)N1c1ccccc1 (stereo not drawn) | 0.401 | 38.1 | > 39 | –
5 | Cc1cccc(N2C(=O)CSC2c2c(Cl)cccc2Cl)n1 (stereo not drawn) | 0.044 | 285 | 285 | IC50 (MT4 [6]): 2.24 µM
6 | O=C1CSC(c2c(F)cccc2F)N1c1ccccn1 (stereo not drawn) | 0.855 | > 427 | > 427 | –
7 | O=C1CSC(c2c(Cl)cccc2Cl)N1c1cccnc1 (stereo not drawn) | > 23 | 23.4 | – | EC50 (MT4 [7]): Not Active
8 | Cc1cccnc1N1C(=O)CSC1c1c(Cl)cccc1Cl (stereo not drawn) | – | 42.6 | > 31.5 | EC50 (MT4 [8]): Not Active
9 | Clc1cccc(Cl)c1C1SCc2nc3ccccc3n21 (stereo not drawn) | 0.589 | 9.43 | – | –
10 | Cc1ccc(N2C(=O)CSC2c2c(F)cccc2F)nc1 (stereo not drawn) | 5.13 | 202 | > 171 | –
11 | O=C1CSC(c2c(F)cccc2F)N1c1ccccc1 (stereo not drawn) | – | – | – | EC50 (MT4 [9]): > 429 µM; CC50 (MT4 [10]): > 429 µM; EC50 (MT4 [11]): 2.3 µM
12 | Cc1ccnc(N2C(=O)CSC2c2c(Cl)cccc2Cl)c1 (stereo not drawn) | 0.147 | > 368 | > 368 | –
13 | O=C1CSC(c2c(F)cccc2F)N1c1cccnc1 (stereo not drawn) | 95.1 | > 427 | > 427 | –
14 | O=C1CSC(c2c(Cl)cccc2Cl)N1c1ccccn1 (stereo not drawn) | 0.178 | 38.5 | > 38.5 | –
15 | Cc1ccnc(N2C(=O)CSC2c2c(F)cccc2F)c1 (stereo not drawn) | 0.248 | 242 | > 242 | Ratio [12]: 976; IC50 (MT4 [6]): 2.84 µM
